Key:
Format in all cases: in vivo
[1] = test system: Venturia inaequalis (apple scab); assay: Greenhouse Test 1, foliar spray fungicide screen (APPL SCAB), host apple seedling; details: disease control rating, 400 ppm (+++ at 100 ppm)
[2] = test system: Pyricularia oryzae (rice blast); details: disease control rating, foliar spray, host rice; 400 ppm (+++ at 100 ppm)
[3] = test system: Pseudoperonospora cubensis (downy mildew); assay: Greenhouse Test 1, foliar spray fungicide screen (DOWN MDEW), host squash; details: disease control rating, 400 ppm (+++ at 100 ppm)
[4] = test system: southern armyworm (Spodopetra eridania Cramer); assay: Mite/insect screen, sprayed squash leaves (SAW); details: Spodoptera eridania, percent mortality, read-out: SAW RESULTS %; for mortality at 200 ppm: spray rate 200 ppm; for mortality at 400 ppm: spray rate 400 ppm
Method in brief: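 Mortality and phytotoxicity read after standard exposure periods on sprayed squash: cotyledons for melon aphids and twospotted spider mites, excised leaves placed with southern armyworm larvae. Spray solutions were water dilutions of acetone/alcohol stocks containing TOXIMUL R and S emulsifiers, applied to runoff at 10 psi and air-dried one hour.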

[5] = test system: Twospotted spider mites (Tetranychus urticae Koch); assay: Mite/insect screen, sprayed squash cotyledons (SM); details: Tetranychus urticae, percent mortality, read-out: SM RESULTS %; for mortality at 200 ppm: spray rate 200 ppm; for mortality at 400 ppm: spray rate 400 ppm
Method in brief: (§1)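 Acetone/alcohol (50:50) + emulsifier blends 23 g/L and 13 g/L; water dilution to test concs. Spray both leaf surfaces to runoff, dry 1 h. For armyworm, 2 excised uninfested leaves into Petri dish with larvae. Readout: % mortality, phytotoxicity.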

[6] = test system: Southern corn rootworm (Diabrotica undecimpuctata howardi Barber); assay: Mite/insect screen, soil treatment (CRW); details: Diabrotica, percent mortality, soil treatment, read-out: CRW RESULTS %; for mortality at 12 ppm: CRW rate 12.00 ppm; for mortality at 24 ppm: CRW rate 24.00 ppm
Method in brief: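 Five 2–3 instar larvae were placed on dry sandy soil with a presoaked corn seed after the soil had received 1 mL of compound solution and dried 6–12 h; cups were kept capped at 23°C. Mortality (%) and phytotoxicity were read after standard exposure. Formulation: acetone/alcohol with emulsifiers, water-diluted.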

[7] = test system: Septoria tritici (leaf blotch); assay: Greenhouse Test 1, foliar spray fungicide screen (LEAF BLOT), host wheat; details: disease control rating, 400 ppm (+++ at 100 ppm)
[8] = test system: Botrytis cinerea (gray mold); assay: Greenhouse Test 1, foliar spray fungicide screen (GRAY MOLD), host grape berries; details: disease control rating, 400 ppm (+++ at 100 ppm)
[9] = test system: Erysiphe graminis tritici (powdery mildew); assay: Greenhouse Test 1, foliar spray fungicide screen (POWD MDEW), host wheat; details: disease control rating, 400 ppm (+++ at 100 ppm)
[10] = test system: Cercospora beticola (leaf spot); assay: Greenhouse Test 1, foliar spray fungicide screen (LEAF SPOT), host sugar beet; details: disease control rating, 400 ppm (+++ at 100 ppm)
[11] = test system: melon aphids (Aphis gossypii Glover); assay: Mite/insect screen, sprayed squash cotyledons (MA); details: Aphis gossypii, percent mortality, read-out: MA RESULTS %; for mortality at 200 ppm: spray rate 200 ppm; for mortality at 400 ppm: spray rate 400 ppm
Method in brief: as §1

[12] = test system: Puccinia recondita tritici (leaf rust); assay: Greenhouse Test 1, foliar spray fungicide screen (LEAF RUST), host wheat; details: disease control rating, 400 ppm (+++ at 100 ppm)

| SMILES | APPL SCAB [1] | RICE BLAST [2] | DOWN MDEW [3] | mortality at 200 ppm [4] | mortality at 400 ppm [4] | mortality at 200 ppm [5] | mortality at 400 ppm [5] | mortality at 12 ppm [6] | mortality at 24 ppm [6] | LEAF BLOT [7] | GRAY MOLD [8] | POWD MDEW [9] | LEAF SPOT [10] | mortality at 200 ppm [11] | mortality at 400 ppm [11] | LEAF RUST [12] |
| --- | --- | --- | --- | --- | --- | --- | --- | --- | --- | --- | --- | --- | --- | --- | --- | --- |
| c1ccc(-c2ccc(CCNc3ncnc4ccccc34)cc2)cc1 [Example 106, N-[2-(1,1'-biphenyl)-4-ylethyl]-4-quinazolinamine] | +++ (+++ = 90-100% control at 100 ppm) | +++ (+++ = 90-100% control at 100 ppm) | +++ (+++ = 90-100% control at 100 ppm) | 90% | 80% | 100% | 80% | 0% | 0% | +++ (+++ = 90-100% control at 100 ppm) | - (- = 0-19% control at 400 ppm) | +++ (+++ = 90-100% control at 100 ppm) | + (+ = 20-89% control at 400 ppm) | 0% | 80% | +++ (+++ = 90-100% control at 100 ppm) |
| Fc1ccc(CCOc2ncnc3ccccc23)cc1 [Example 84, 4-[2-(4-fluorophenyl)ethoxy]quinazoline] | ++ (++ = 90-100% control at 400 ppm) | ++ (++ = 90-100% control at 400 ppm) | ++ (++ = 90-100% control at 400 ppm) | 0% | 0% | 0% | 0% | 0% | 40% | + (+ = 20-89% control at 400 ppm) | - (- = 0-19% control at 400 ppm) | ++ (++ = 90-100% control at 400 ppm) | - (- = 0-19% control at 400 ppm) | 0% | 0% | +++ (+++ = 90-100% control at 100 ppm) |
| c1ccc(CCCNc2nc(NCCCc3ccccc3)c3ccccc3n2)cc1 [Example 24, N,N'-bis(3-phenylpropyl)-2,4-quinazolinediamine] | - (- = 0-19% control at 400 ppm) | + (+ = 20-89% control at 400 ppm) | +++ (+++ = 90-100% control at 100 ppm) | 0% | – | 0% | – | 0% | – | - (- = 0-19% control at 400 ppm) | - (- = 0-19% control at 400 ppm) | + (+ = 20-89% control at 400 ppm) | - (- = 0-19% control at 400 ppm) | 0% | – | + (+ = 20-89% control at 400 ppm) |
| Clc1ccccc1OCCOc1ncnc2ccccc12 [Example 110, 4-[2-(2-chlorophenoxy)ethoxy]quinazoline] | - (- = 0-19% control at 400 ppm) | + (+ = 20-89% control at 400 ppm) | + (+ = 20-89% control at 400 ppm) | 0% | 0% | 0% | 0% | 0% | 0% | - (- = 0-19% control at 400 ppm) | - (- = 0-19% control at 400 ppm) | - (- = 0-19% control at 400 ppm) | - (- = 0-19% control at 400 ppm) | 0% | 0% | ++ (++ = 90-100% control at 400 ppm) |
| Cc1ccc(CCOc2ncnc3ccccc23)cc1 [Example 87, 4-[2-(4-methylphenyl)ethoxy]quinazoline] | - (- = 0-19% control at 400 ppm) | +++ (+++ = 90-100% control at 100 ppm) | +++ (+++ = 90-100% control at 100 ppm) | 0% | 50% | 90% | 90% | 0% | 0% | - (- = 0-19% control at 400 ppm) | - (- = 0-19% control at 400 ppm) | ++ (++ = 90-100% control at 400 ppm) | + (+ = 20-89% control at 400 ppm) | 100% | 100% | ++ (++ = 90-100% control at 400 ppm) |
